# Results reported in US4652636A, “Pentene-diphenyl-diglucoside containing compound” (priority 1982, dated 1987).
# What was measured:
# [1] = Acute toxicity evaluation of (I), mouse; format: in vivo; settings: in vivo, ip, mouse, intraperitoneal, dead/treated (range %)
# Experimental: (§1) Solutions of (I) in distilled water were prepared with the required concentration. Administered volumes were kept constant at the rate of 10 cm^3 per kg. In each case equal numbers of males and females were treated with a single dose. All animals were observed over 7 days for signs of toxic and/or pharmaco-dynamic effects.
# (§2) A necropsy was performed on all surviving animals.
# Mouse = experiment: Acute toxicity evaluation of (I), mouse; format: in vivo; settings: for Mortality (Range %): dead/treated
# Experimental: as §1, §2
# Rabbits = experiment: Acute toxicity evaluation of (I), rabbits; format: in vivo, rabbit; settings: intravenous; for Mortality (Range %): dead/treated
# Experimental: as §1, §2
# pregnant mouse foeti = experiment: Foetotoxic-teratogenic effect of (I) in pregnant mice; format: in vivo, mouse (Swiss Webster); settings: for No of foeti / No of implantation sites / No of live foeti / No of malformations: 6 mice
# Experimental: Two groups of six fully impregnated mice (Swiss Webster offspring) were treated orally with aqueous solutions of (I) once per day (10 ml/kg) starting day 1 through to day 8 of the gestation period. On day 20 of the pregnancies the mice were lightly anaethetised with diethyl ether and the uterus exposed by caesarian section. The total number of implantation sites were counted. All foeti were removed and examined for
# (b) macroscopic gross anatomical abnormalities of limbs and head.
# Mouse sarcoma--Ms 52 B = experiment: In vitro cytostatic cytotoxic effects, MS 52 B; format: cell-based; settings: I 40 ng, 37° C.
# Experimental: (§3) "In vitro" cytostatic cytotoxic effects with Hypoxis rooperi extracts (example 2(e)(i)) and Compound I Four different cell culture types were used:
# i. Mouse sarcoma--Ms 52 B
# (§4) Procedure: Trypsinized cells were harvested into MEM and suitably diluted to supply about 2×10^5 cells per cm^3. A culture flask containing 4,5 cm^3 of culture medium was seeded with 0.5 cm^3 of the prepared cell suspension. This cell culture was then incubated at 37° C. for 24 hours before the test substances dissolved in 0.5 cm^3 of the culture medium were added.
# Mouse melacoma--Mel B1-6 = experiment: In vitro cytostatic cytotoxic effects, Mel B1-6; format: cell-based; settings: Mel B1-6, I 40 ng, 37° C.
# Experimental: as §3
# ii. Mouse melacoma--Mel B1-6
# as §4
# Heha 229 = experiment: In vitro cytostatic cytotoxic effects, Heha 229; format: cell-based; settings: Heha 229, I 40 ng, 37° C.
# Experimental: as §3, §4
# [2] = tested on: Human foetal foreskin fibroblasts--HFSF; experiment: In vitro cytostatic cytotoxic effects, HFSF (non-malignant); format: cell-based; settings: I 40 ng, 37° C.
# Experimental: as §3
# iv. Human foetal foreskin fibroblasts--HFSF (non-malignant)
# as §4
smiles,measurement,setting,value
OC[C@H]1O[C@@H](Oc2ccc(C#CC/C=C/c3ccc(O[C@@H]4O[C@H](CO)[C@@H](O)[C@H](O)[C@H]4O)c(O)c3)cc2O)[C@H](O)[C@@H](O)[C@@H]1O [Compound I],mortality at 168 h,[1]; 1000 mg/kg,16.7%
same,mortality at 168 h,[1]; 2000 mg/kg,90%
same,direct toxic effects (conclusion),"Mouse; acute toxicity, single dose",low degree of direct toxic effects
same,Mortality (Range %),"Mouse; mouse, intraperitoneal, 250 mg/kg",0/10
same,Mortality (Range %),"Mouse; mouse, intraperitoneal, 500 mg/kg",0/20
same,Remarks: signs of discomfort,"Mouse; mouse, intraperitoneal, all animals, increasing with dose",discomfort
same,Mortality (Range %),"Mouse; mouse, oral, 1000 mg/kg",0/20
same,Mortality (Range %),"Mouse; mouse, oral, 2000 mg/kg",0/20
same,Mortality (Range %),"Mouse; mouse, oral, 4000 mg/kg",0/20
same,Remarks: macroscopic lesions,"Mouse; mouse, oral, 1000-4000 mg/kg, any animal",No macroscopic
same,macroscopic lesions on necropsy,Mouse; surviving animals,No macroscopic lesions were observed
same,Mortality (Range %),Rabbits; 50 mg/kg,0/2
same,Mortality (Range %),Rabbits; 100 mg/kg,0/2
same,Remarks: macroscopic lesions,Rabbits; 50 and 100 mg/kg,no macropscopic
same,Remarks: thrombophlebitis at the injection site,Rabbits; 50 and 100 mg/kg,No thrombophlebitis
same,Remarks: visible effects,Rabbits; 50 and 100 mg/kg,No visible effects
same,No of foeti,pregnant mouse foeti; 20 mg/kg oral,52
same,No of implantation sites,pregnant mouse foeti; 20 mg/kg oral,58
same,No of live foeti,pregnant mouse foeti; 20 mg/kg oral,50
same,No of malformations,pregnant mouse foeti; 20 mg/kg oral,0
same,No of foeti,pregnant mouse foeti; 100 mg/kg oral,49
same,No of implantation sites,pregnant mouse foeti; 100 mg/kg oral,58
same,No of live foeti,pregnant mouse foeti; 100 mg/kg oral,45
same,No of malformations,pregnant mouse foeti; 100 mg/kg oral,3 (2?)
same,abnormally reduced growth rate of the foeti,pregnant mouse foeti; any of the treated groups,no indications of abnormally reduced growth rate of the foeti
same,teratogenic effects,pregnant mouse foeti; at the doses administered,unlikely
same,adverse effects in the treated mother animals,pregnant mouse foeti; treated mother animals,No adverse effects were detected
same,Confluency,Mouse sarcoma--Ms 52 B; 24 hours,40%
same,Confluency,Mouse sarcoma--Ms 52 B; 48 hours,20%
same,Confluency,Mouse sarcoma--Ms 52 B; 72 hours,20%
same,Confluency,Mouse sarcoma--Ms 52 B; 96 hours,20%
same,Confluency,Mouse melacoma--Mel B1-6; 24 hours,40%
same,Confluency,Mouse melacoma--Mel B1-6; 48 hours,30%
same,Confluency,Mouse melacoma--Mel B1-6; 72 hours,40%
same,Confluency,Mouse melacoma--Mel B1-6; 96 hours,40%
same,Confluency,Mouse melacoma--Mel B1-6; 120 hours,30%
same,Confluency,Heha 229; 24 hours,50%
same,Confluency,Heha 229; 48 hours,60%
same,Confluency,Heha 229; 72 hours,50%
same,Confluency,Heha 229; 96 hours,30%
same,Confluency,[2]; 24 hours,40%
same,Confluency,[2]; 48 hours,50%
same,Confluency,[2]; 72 hours,50%
same,Confluency,[2]; 96 hours,40%
